Measurements from ChEMBL document CHEMBL5244275, “Geminal Diheteroatomic Motifs: Some Applications of Acetals, Ketals, and Their Sulfur and Nitrogen Homologues in Medicinal Chemistry and Drug Design” (J Med Chem, 2021).
≈ marks a conversion by molar mass, not a printed value.

Experiments:
[1] = target: Sterol O-acyltransferase 1 (Rattus norvegicus, UniProt O70536); test: Inhibition of ACAT in rat
[2] = Stability of the compound at pH 2 assessed as half-life; format: physicochemical; conditions: buffer
Plasmodium falciparum = test: Antiplasmodial activity against Plasmodium falciparum W2 assessed as inhibition of parasite growth; format: functional, organism-based
[3] = Half-life in iv dosed rat plasma; format: ADME, organism-based
[4] = Oral bioavailability in mouse; format: ADME, organism-based; conditions: in vivo
[5] = Stability of the compound at pH 7.4 aqueous phosphate buffer assessed as half-life; format: physicochemical
[6] = Antiplatelet activity in human platelet rich plasma assessed as platelet aggregation; format: functional, cell-free
[7] = system: Human immunodeficiency virus 1; test: Antiviral activity against HIV-1 RF; format: functional, organism-based; conditions: Human immunodeficiency virus 1, RF
[8] = system: Human immunodeficiency virus 1; test: microbe, parasite or virus in culture; conditions: Human immunodeficiency virus 1, LAV
MAP kinase p38 = MAP kinase p38 (Homo sapiens, UniProt O15264+Q15759+Q16539+P53778); test: Inhibition of p38-MAPK (unknown origin); format: protein assay
[9] = Oral bioavailability in rat; format: ADME, organism-based; conditions: in vivo
Mus musculus = test: Antiinflammatory activity in LPS-induced Balb/c mouse model assessed as reduction in TNF-alpha release administered orally for 30 mins followed by LPS-stimulation and measured after 90 mins by ELISA analysis; format: functional; conditions: 2 h, route po, time 120 min
[10] = target: Hepatitis C virus serine protease, NS3/NS4A (Hepatitis C virus, UniProt A3EZI9+D2K2A8); test: Inhibition of Hepatitis C virus NS4A-NS3 protease by continuous assay; format: protein-complex assay, Hepacivirus hominis
[11] = Stability of the compound assessed as compound hydrolysis by measuring rate constant; format: physicochemical
[12] = Antiplasmodial activity against Plasmodium berghei NK 173 infected in ICR (CD-1) mouse assessed as inhibition of parasite growth administered intraperitoneally for four days; conditions: NK 173, 96 h
[13] = Stability of the compound assessed as compound hydrolysis by measuring relative rate constant by dilatometric method; format: physicochemical
[14] = Half-life in po dosed rat; format: ADME, organism-based; conditions: in vivo
[15] = Drug concentration in rat plasma at 10 mg/kg, po measured after 90 mins; format: ADME, organism-based
Candida albicans [16] = test: Antifungal activity against Candida albicans GS; format: functional, organism-based
Candida albicans [17] = test: Fungicidal activity against Candida albicans; format: functional
[18] = Clearance in Chimpanzee at 0.5 mg/kg, iv bolus injection; format: ADME, organism-based, Pan troglodytes; conditions: in vivo
[19] = Clearance in Chimpanzee at 0.5 mg/kg administered as iv infusion; format: ADME, organism-based, Pan troglodytes; conditions: in vivo
[20] = Dissociation constant, pKa of the compound; format: physicochemical
[21] = Drug degradation in citrate buffer at pH 4 measured after 18 hrs; format: physicochemical; conditions: read-out: Drug degradation
[22] = Drug degradation in citrate buffer at pH 8.5 measured after 18 hrs; format: physicochemical; conditions: read-out: Drug degradation
[23] = Drug recovery in mouse urine; format: ADME; conditions: pooled result: one value given for 8 cell lines, strains, targets or settings, read-out: Drug recovery
Substance-P receptor = Substance-P receptor (Homo sapiens, UniProt P25103); test: Displacement of [125I]-labeled SP from human NK-1 receptor expressed in CHO cells at 1 uM relative to control; format: cell-based; conditions: filed as antagonist
[24] = target: Sodium-dependent dopamine transporter (Homo sapiens, UniProt Q01959); test: Inhibition of dopamine transporter (unknown origin)
[25] = target: Sodium-dependent serotonin transporter (Homo sapiens, UniProt P31645); test: Inhibition of SERT (unknown origin)
[26] = system: Human immunodeficiency virus 1; test: Antiviral activity against HIV1 infected in human MT4 cells assessed as inhibition of viral replication; format: functional, organism-based; conditions: Human immunodeficiency virus 1, MT4
[27] = system: Human immunodeficiency virus 1; test: Selectivity index, ratio of EC50 for antiviral activity against HIV-1 G140S/Q148R mutant to EC50 for antiviral activity against wild-type HIV-1; format: functional
[28] = Unbound fraction in human plasma; format: ADME, cell-free
PXR (NR1I2) = PXR (NR1I2) (Homo sapiens, UniProt O75469); test: Activation of PXR (unknown origin) in human DPX2 cells assessed as maximal efficacy at 15 uM relative to control; format: cell-based
[29] = Solubility of the compound at pH 7 incubated for 12 hrs by UPLC analysis; format: physicochemical; conditions: buffer, pH 7, 12 h
[30] = Bioavailability in rat at 0.5 mg/kg, iv measured after 30 mins by LC-MS/MS analysis; format: ADME, organism-based; conditions: in vivo
[31] = Bioavailability in dog at 1 mg/kg, iv measured after 30 mins by LC-MS/MS analysis; format: ADME, organism-based, Canis lupus familiaris; conditions: in vivo
[32] = Half-life in human; format: ADME

Sequence of Hepatitis C virus serine protease, NS3/NS4A (D2K2A8 whole entry): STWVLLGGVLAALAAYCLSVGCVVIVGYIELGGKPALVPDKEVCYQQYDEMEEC
Sequence of Hepatitis C virus serine protease, NS3/NS4A (A3EZI9 whole entry): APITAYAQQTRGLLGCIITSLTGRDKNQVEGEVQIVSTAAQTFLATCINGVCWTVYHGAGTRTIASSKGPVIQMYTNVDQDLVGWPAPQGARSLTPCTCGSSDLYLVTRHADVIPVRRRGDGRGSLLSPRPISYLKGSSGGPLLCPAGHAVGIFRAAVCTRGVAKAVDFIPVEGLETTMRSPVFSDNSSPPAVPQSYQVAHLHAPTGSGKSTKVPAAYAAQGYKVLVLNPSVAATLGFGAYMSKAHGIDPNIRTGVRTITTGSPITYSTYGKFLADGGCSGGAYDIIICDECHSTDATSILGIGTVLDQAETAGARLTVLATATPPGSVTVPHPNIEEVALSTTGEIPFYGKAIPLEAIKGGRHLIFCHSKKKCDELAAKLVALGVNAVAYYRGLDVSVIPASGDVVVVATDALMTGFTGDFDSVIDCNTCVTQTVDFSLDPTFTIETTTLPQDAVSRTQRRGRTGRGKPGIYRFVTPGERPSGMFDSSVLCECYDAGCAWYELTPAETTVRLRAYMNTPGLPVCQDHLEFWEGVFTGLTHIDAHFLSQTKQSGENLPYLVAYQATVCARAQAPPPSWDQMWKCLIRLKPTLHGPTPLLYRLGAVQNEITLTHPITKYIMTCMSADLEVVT
Sequence of Sterol O-acyltransferase 1 (O70536 whole entry): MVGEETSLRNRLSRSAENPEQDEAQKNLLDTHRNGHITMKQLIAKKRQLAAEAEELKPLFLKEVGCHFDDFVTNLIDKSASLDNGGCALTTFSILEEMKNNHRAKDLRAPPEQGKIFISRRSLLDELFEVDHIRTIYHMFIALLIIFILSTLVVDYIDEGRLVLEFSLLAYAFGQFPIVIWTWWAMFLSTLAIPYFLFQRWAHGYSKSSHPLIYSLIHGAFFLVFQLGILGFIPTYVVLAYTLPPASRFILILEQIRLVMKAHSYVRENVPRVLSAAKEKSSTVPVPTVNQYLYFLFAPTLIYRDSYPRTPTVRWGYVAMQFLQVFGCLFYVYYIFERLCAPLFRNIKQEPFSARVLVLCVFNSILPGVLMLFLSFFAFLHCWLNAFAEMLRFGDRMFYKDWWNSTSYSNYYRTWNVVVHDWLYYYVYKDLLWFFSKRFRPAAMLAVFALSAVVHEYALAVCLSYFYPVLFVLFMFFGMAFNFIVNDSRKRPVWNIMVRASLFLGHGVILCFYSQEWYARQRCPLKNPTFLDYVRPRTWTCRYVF
Sequence of Sodium-dependent dopamine transporter (Q01959 whole entry): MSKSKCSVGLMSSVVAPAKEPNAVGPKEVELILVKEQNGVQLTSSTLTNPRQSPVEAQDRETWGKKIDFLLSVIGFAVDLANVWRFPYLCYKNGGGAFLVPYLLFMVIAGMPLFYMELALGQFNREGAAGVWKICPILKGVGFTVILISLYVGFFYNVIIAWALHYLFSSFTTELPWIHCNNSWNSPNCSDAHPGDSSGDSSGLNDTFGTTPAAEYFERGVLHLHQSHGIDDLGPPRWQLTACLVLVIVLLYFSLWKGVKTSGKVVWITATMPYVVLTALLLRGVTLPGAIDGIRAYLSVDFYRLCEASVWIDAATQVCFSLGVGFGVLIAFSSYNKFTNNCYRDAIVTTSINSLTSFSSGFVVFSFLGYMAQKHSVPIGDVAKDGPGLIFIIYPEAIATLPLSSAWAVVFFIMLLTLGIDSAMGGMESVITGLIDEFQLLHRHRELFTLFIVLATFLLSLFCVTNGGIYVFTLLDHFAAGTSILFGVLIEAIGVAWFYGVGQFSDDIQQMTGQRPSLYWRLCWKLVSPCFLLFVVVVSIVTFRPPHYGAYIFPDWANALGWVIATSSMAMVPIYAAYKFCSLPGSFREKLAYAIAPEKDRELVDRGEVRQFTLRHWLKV
Sequence of Substance-P receptor (P25103 whole entry): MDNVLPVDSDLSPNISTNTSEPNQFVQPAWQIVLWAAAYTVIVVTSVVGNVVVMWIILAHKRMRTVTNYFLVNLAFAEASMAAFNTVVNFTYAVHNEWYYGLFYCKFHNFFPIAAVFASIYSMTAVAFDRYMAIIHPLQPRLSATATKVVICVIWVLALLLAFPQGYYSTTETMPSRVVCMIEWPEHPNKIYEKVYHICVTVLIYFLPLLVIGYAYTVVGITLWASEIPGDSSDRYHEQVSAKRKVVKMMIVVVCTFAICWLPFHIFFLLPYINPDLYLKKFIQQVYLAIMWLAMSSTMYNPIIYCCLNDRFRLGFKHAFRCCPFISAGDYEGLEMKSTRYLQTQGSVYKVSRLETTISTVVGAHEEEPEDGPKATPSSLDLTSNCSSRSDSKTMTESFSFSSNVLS
Sequence of Sodium-dependent serotonin transporter (P31645 whole entry): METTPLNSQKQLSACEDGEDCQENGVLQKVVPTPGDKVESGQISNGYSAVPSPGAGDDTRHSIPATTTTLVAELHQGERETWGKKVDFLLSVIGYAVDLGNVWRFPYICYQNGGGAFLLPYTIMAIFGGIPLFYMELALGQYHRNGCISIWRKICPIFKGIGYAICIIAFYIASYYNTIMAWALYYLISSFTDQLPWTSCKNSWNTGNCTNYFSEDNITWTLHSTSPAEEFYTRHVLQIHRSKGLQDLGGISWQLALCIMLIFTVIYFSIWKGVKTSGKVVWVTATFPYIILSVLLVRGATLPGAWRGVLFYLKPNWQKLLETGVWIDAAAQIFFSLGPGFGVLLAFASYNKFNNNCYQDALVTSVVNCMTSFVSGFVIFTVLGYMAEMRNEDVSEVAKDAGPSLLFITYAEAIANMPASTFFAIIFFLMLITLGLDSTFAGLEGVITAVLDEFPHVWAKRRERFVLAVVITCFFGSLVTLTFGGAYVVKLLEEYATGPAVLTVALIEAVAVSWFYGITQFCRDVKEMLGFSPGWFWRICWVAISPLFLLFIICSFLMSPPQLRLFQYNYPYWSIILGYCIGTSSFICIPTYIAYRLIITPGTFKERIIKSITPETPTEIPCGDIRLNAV
Sequence of PXR (NR1I2) (O75469 whole entry): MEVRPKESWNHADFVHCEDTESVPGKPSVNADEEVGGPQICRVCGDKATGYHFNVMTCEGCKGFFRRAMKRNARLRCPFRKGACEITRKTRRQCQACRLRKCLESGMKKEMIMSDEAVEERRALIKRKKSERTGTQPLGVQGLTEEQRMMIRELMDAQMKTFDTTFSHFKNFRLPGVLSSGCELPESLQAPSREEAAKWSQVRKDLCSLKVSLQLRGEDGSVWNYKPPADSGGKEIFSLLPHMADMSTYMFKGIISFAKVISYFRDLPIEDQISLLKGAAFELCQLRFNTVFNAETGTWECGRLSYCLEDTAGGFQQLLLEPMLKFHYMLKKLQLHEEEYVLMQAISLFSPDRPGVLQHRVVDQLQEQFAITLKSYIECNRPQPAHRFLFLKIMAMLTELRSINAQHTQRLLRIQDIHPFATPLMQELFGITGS

Compound `c1ccc(-c2nc(C3OCCCO3)[nH]c2-c2ccccc2)cc1` has an IC50 [1] of 110 nM.

`C[C@@H]1CC[C@H]2[C@@H](C)[C@](O)(C(F)(F)F)O[C@@H]3O[C@@]4(C)CC[C@@H]1[C@]32OO4` showed a half-life [2] of 31.7 days, an IC50 (Plasmodium falciparum) of 2.6 nM and a half-life [3] of 0.0597 days. For the same compound, the bioavailability [4] was 28%.

Work on `CCCCC[C@H](O)/C=C/[C@H]1O[C@@H]2O[C@H]([C@@H]1C/C=C\CCCC(=O)O)C2(F)F` yielded a half-life [5] of 322 days and an EC50 [6] of 36 nM.

In the case of `Nc1ccn([C@@H]2CS[C@H](CO)O2)c(=O)n1` [LAMIVUDINE], the IC50 [7] is reported as 870 nM and the EC50 [8] is reported as 2000 nM.

Compound `C[C@]1(NC(=O)N2CCOCC2)CO[C@H](c2nc(-c3ccncc3)c(-c3ccc(F)cc3)[nH]2)OC1` has an IC50 (MAP kinase p38) of 50 nM, a bioavailability [9] of 50% and an ED50 (Mus musculus) of less than 10 mg/kg.

`CCC[C@H](NC(=O)[C@@H]1[C@H]2O[C@H]3CCCOc4cccc(c4)CC(=O)N[C@@H](C4CCCCC4)CN1C[C@@H]2O3)C(=O)C(=O)NCC(=O)N[C@H](C(=O)O)c1ccccc1` showed a Ki [10] of 38 nM.

`CCC[C@H](NC(=O)[C@@H]1[C@H]2O[C@H]3CCCOc4cccc(c4)CC(=O)N[C@@H](C4CCCCC4)CN1C[C@@H]2O3)C(=O)C(=O)NCC(=O)N[C@H](C(=O)OC(C)(C)C)c1ccccc1` gave a Ki [10] of 38 nM.

For `CCCCC[C@H](O)/C=C/[C@H]1O[C@H]2C[C@H](O2)[C@@H]1C/C=C\CCCC(=O)O`, the EC50 [6] was 162 nM and the K [11] was 5.5 10^5/M/s.

`Nc1ccn([C@H]2CS[C@@H](CO)O2)c(=O)n1` showed an IC50 [7] of 1220 nM and an EC50 [8] of 200 nM.

`CO[C@@]1(C(F)(F)F)O[C@@H]2O[C@@]3(C)CC[C@H]4[C@H](C)CC[C@@H]([C@H]1C)[C@@]24OO3` gave a half-life [2] of 27.5 days and an ED50 [12] of 3.4 µmol/kg.

With `CC1OCCO1` the K [13] was 5.1 10^3No_unit.

`CC(C)(N)CNC(=O)CC1CCC2(CC1)OOC1(O2)C2CC3CC(C2)CC1C3` (configuration not stated) showed a bioavailability [9] of 35% and a half-life [14] of 0.0417 days.

Work on `Cc1cc(C)n(CCC[C@H]2CO[C@@H](c3nc(-c4ccccc4)c(-c4ccccc4)[nH]3)OC2)n1` yielded a concentration at 1.5 h [15] of 1300 nM.

Compound `CC[C@H](C)C[C@H](C)CCCCCCCCC(=O)N[C@H]1C[C@@H](O)[C@@H](NCCN)NC(=O)[C@@H]2[C@@H](O)CCN2C(=O)[C@H]([C@H](O)CCN)NC(=O)[C@H]([C@H](O)[C@@H](O)c2ccc(O)cc2)NC(=O)[C@@H]2C[C@@H](O)CN2C(=O)[C@H]([C@@H](C)O)NC1=O` [CASPOFUNGIN] has an IC50 (Candida albicans [16]) of 0.6 nM, an MFC (Candida albicans [17]) of 0.125 µg/mL (≈ 0.114 µM) and a clearance [18] of 0.26 mL/min/kg. The clearance [19] was 0.21 mL/min/kg.

With `CC(=O)NC[C@H]1CN(c2ccc(N3CCOCC3)c(F)c2)C(=O)O1` [LINEZOLID] the pKa [20] was less than 6, the degraded at 18 h [21] was less than 1% and the degraded at 18 h [22] was 40%.

With `CC1(C)O[C@@H]2[C@@H](CC[C@@]3(COS(N)(=O)=O)OC(C)(C)O[C@@H]23)O1` the dose excreted [23] was 89%.

In the case of `Fc1ccc([C@@H]2NCCO[C@@]23CC[C@H](c2ccccc2C(F)(F)F)CO3)cc1`, the Activity (Substance-P receptor) is reported as 44%.

`COC(=O)[C@H]1[C@@H](c2ccc(Cl)c(Cl)c2)C[C@@H]2CC[C@H]1N2C` showed an IC50 [24] of 1.1 nM and an IC50 [25] of 2 nM.

For `O=C(NCc1c(F)cc(F)cc1F)c1cn2c(c(O)c1=O)C(=O)N1[C@H]3CC[C@H](C3)O[C@@H]1C2` [BICTEGRAVIR], the EC50 [26] was 1.9 nM, the “Ratio EC50” value [27] was 2 and the Fu [28] was 0.3%. For the same compound, the Emax at 15 µM (PXR (NR1I2)) was 18%, the solubility [29] was 119 µg/mL (≈ 265 µM) and the bioavailability [30] was 50%. It also gave a bioavailability [31] of 28% and a half-life [32] of 0.792 days.

Compound `C[C@]1(NC(=O)c2ccccc2)CO[C@H](c2nc(-c3ccncc3)c(-c3ccc(F)cc3)[nH]2)OC1` has an IC50 (MAP kinase p38) of 44 nM, a bioavailability [9] of 64% and an ED50 (Mus musculus) of 10 mg/kg.

In the case of `C1COCO1`, the K [13] is reported as 1.
